From patent US11266147B2, “Fungicidal oxadiazoles” (Bayer Aktiengesellschaft, priority 2017, dated 2022)

Experiments:
[1] = test system: Colletotrichum lindemuthianum; assay: Colletotrichum lindemuthianum in vitro cell test; type: cell-based; conditions: 144 h, liquid culture with spores, 6 days incubation, read-out: efficacy (inhibition of fungal growth); for inhibition at 4 ppm: 4 ppm of active ingredient; for inhibition at 20 ppm: 20 ppm of active ingredient
Protocol: Example E: Colletotrichum lindemuthianum In Vitro Cell Test • Solvent: DMSO • Culture medium: 14.6 g anhydrous D-glucose (VWR), 7.1 g Mycological Peptone (Oxoid), 1.4 g granulated Yeast Extract (Merck), QSP 1 liter • Inoculum: spores suspension Fungicides were solubilized in DMSO and the solution used to prepare the required range of concentrations. The final concentration of DMSO used in the assay was ≤[…]1%. A spore suspension of C. lindemuthianum was prepared and diluted to the desired spore density. Fungicides were evaluated for their ability to inhibit spores germination and mycelium growth in liquid culture assay. The compounds were added in the desired concentration to the culture medium with spores. After 6 days incubation, fungi-toxicity of compounds was determined by spectrometric measurement of mycelium growth. Inhibition of fungal growth was determined by comparing the absorbance values in wells containing the fungicides with the absorbance in control wells without fungicides.

[2] = LogP by HPLC on reversed phase columns (EEC directive 79/831 Annex V.A8); type: physicochemical; conditions: method [a]: LC-UV, acidic range, 0.1% formic acid in water and acetonitrile, linear gradient 10% to 95% acetonitrile
Protocol: [table] If more than one LogP value is available within the same method, all the values are given and separated by “+”. Calibration was done with straight-chain alkan2-ones (with 3 to 16 carbon atoms) with known LogP values (measurement of LogP values using retention times with linear interpolation between successive alkanones). Lambda-max-values were determined using UV-spectra from 200 nm to 400 nm and the peak values of the chromatographic signals.

Compound	LogP [2]	further results
FC(F)(F)c1nc(-c2cnc(N[C@@H]3CCOc4ccccc43)nc2)no1 [Compound I-01, N-[(4R)-3,4-dihydro-2H-chromen-4-yl]-5-[5-(trifluoromethyl)-1,2,4-oxadiazol-3-yl]pyrimidin-2-amine]		inhibition at 4 ppm [1]: 70 to 79%; inhibition at 20 ppm [1]: 80 to 89%
Fc1ccccc1Nc1ncc(-c2noc(C(F)(F)F)n2)cn1 [Compound I-04, N-(2-Fluorophenyl)-5-[5-(trifluoromethyl)-1,2,4-oxadiazol-3-yl]pyrimidin-2-amine]		inhibition at 4 ppm [1]: 80 to 89%; inhibition at 20 ppm [1]: 80 to 89%
FC(F)(F)c1nc(-c2ccc(Nc3ncccn3)cc2)no1 [Compound I-05, N-{4-[5-(trifluoromethyl)-1,2,4-oxadiazol-3-yl]phenyl}pyrimidin-2-amine]		chromatographic logP ([2]; reversed phase HPLC column): 3.5; inhibition at 4 ppm [1]: 80 to 89%; inhibition at 20 ppm [1]: 90 to 100%
Cc1cccc(Nc2ncc(-c3noc(C(F)(F)Cl)n3)cn2)c1 [Compound I-68]	4.34^[a]	
FC(F)Oc1ccc(Nc2ncc(-c3noc(C(F)(F)Cl)n3)cn2)cc1 [Compound I-69]	4.11^[a]	
FC(F)(Cl)c1nc(-c2cnc(Nc3ccc4c(c3)OCO4)nc2)no1 [Compound I-70]	3.72^[a]	
FC(F)(Cl)c1nc(-c2cnc(Nc3ccccc3)nc2)no1 [Compound I-71]	3.96^[a]	
Fc1ccc(Nc2ncc(-c3noc(C(F)(F)Cl)n3)cn2)cc1 [Compound I-72]	3.99^[a]	
FC(F)(Cl)c1nc(-c2cnc(Nc3cccc4c3CCC4)nc2)no1 [Compound I-73]	4.69^[a]	
CC(=O)Nc1cccc(Nc2ncc(-c3noc(C(F)(F)Cl)n3)cn2)c1 [Compound I-74]	2.75^[a]	
Fc1ccc(Nc2ncc(-c3noc(C(F)(F)Cl)n3)cn2)c(F)c1 [Compound I-75]	3.92^[a]	
Fc1cccc(Nc2ncc(-c3noc(C(F)(F)Cl)n3)cn2)c1 [Compound I-76]	4.18^[a]	
FC(F)(Cl)c1nc(-c2cnc(Nc3ccccc3Cl)nc2)no1 [Compound I-77]	4.46^[a]	
COc1ccccc1Nc1ncc(-c2noc(C(F)(F)Cl)n2)cn1 [Compound I-78]	4.41^[a]	
FC(F)(Cl)c1nc(-c2cnc(Nc3cccc(Cl)c3)nc2)no1 [Compound I-79]	4.56^[a]	
COc1cccc(Nc2ncc(-c3noc(C(F)(F)Cl)n3)cn2)c1 [Compound I-80]	3.96^[a]	
COc1cc(Nc2ncc(-c3noc(C(F)(F)Cl)n3)cn2)ccc1C [Compound I-81]	4.51^[a]	
N#Cc1cccc(Nc2ncc(-c3noc(C(F)(F)Cl)n3)cn2)c1 [Compound I-82]	3.72^[a]	
FC(F)(Cl)c1nc(-c2cnc(Nc3ccc(S(F)(F)(F)(F)F)cc3)nc2)no1 [Compound I-83]	5.00^[a]	
N#CCc1ccc(Nc2ncc(-c3noc(C(F)(F)Cl)n3)cn2)cc1 [Compound I-84]	3.46^[a]	
FC(F)(F)c1cccc(Nc2ncc(-c3noc(C(F)(F)Cl)n3)cn2)c1 [Compound I-85]	4.69^[a]	
FC(F)(F)c1nc(-c2cnc(Nc3nc4c(s3)CCC4)nc2)no1 [Compound I-86]	3.81^[a]	
FC(F)(F)c1nc(-c2cnc(Nc3ccc4ncccc4c3)nc2)no1 [Compound I-87]	1.98^[a]	
Cn1ccnc1Nc1ncc(-c2noc(C(F)(F)F)n2)cn1 [Compound I-88]	1.08^[a]	
FC(F)(Cl)c1nc(-c2cnc(Nc3nc4c(s3)CCC4)nc2)no1 [Compound I-89]	4.03^[a]	
FC(F)(Cl)c1nc(-c2cnc(Nc3ccc4ncccc4c3)nc2)no1 [Compound I-90]	2.13^[a]	
